# Results as given in patent US20130046012A1, “NEW COMPOUNDS, SYNTHESIS AND USE THEREOF IN THE TREATMENT OF PAIN” (LACER, S.A., priority 2010, published 2013).
# Structures can show the parent of a compound that is named as a salt.
# Experiments:
# Male Swiss mice [1] = experiment: Formalin test (analgesic activity, licking time of the injected paw); assay type: in vivo; conditions: p.o. 10 min before 5% formalin injection into hind paw, second phase (15-60 min), % inhibition of licking vs. control, Litchfield and Wilcoxon; for ED50: Mus musculus, po, read-out: FORMALIN TEST (ED50 p.o) Phase II
# Method: The pharmacological activity of the products of the present invention was tested in vivo in formalin test model, which is known to evaluate neuropathic and inflammatory pain in animals.
# The formalin test was introduced as a model of tonic pain in 1977, and has since […] been used extensively in rats and mice. In rats, formalin generates an initial phase of activity (5-10 min, phase 1), a quiescent interphase (5-10 min), and a second phase of activity (lasting 60-90 min, phase 2), and this is seen with spontaneous behaviors, firing of afferent neurons, and activity in dorsal horn neurons. Both active phases involve ongoing peripheral afferent neural activity; inflammation contributes to phase 2 activity and the interphase results from active inhibition. Responses are concentration dependent between 0.25% and 2.5%, plateau from 2.5% to 5%, and can decline at higher concentrations. Formalin also results in tissue edema, and this is longer lasting. Responses to formalin up to 2.5% are predominantly neurogenic, while at higher concentrations, responses involve a further prominent inflammatory component. Within the spinal cord, formalin increases c-Fos expression in neurons and causes activation of microglia, and these may contribute more prominently to longer term changes. Acute responses (to 90 min) may represent a model of ongoing acute pain involving inflammation and aspects of central sensitization, while longer term responses (days, weeks) may represent a model of changes involved in persistent pathological pain.
# Male Swiss mice (weight range, 16-20 g) were used (n=6-8 per group).Mice were fasted for 3 hours before the administration of oral treatment with free access to drinking water before the experiment. All experiments were conducted in accordance with the “Guidelines on Ethical Standards for Investigation of Experimental Pain in Animals
# Mice were housed in clear plastic chambers with a mirror placed at a 45° angle to allow an unobstructed view of the paws. Mice were injected into the dorsal surface of hind paw with 20 μl of dilute formalin (5%) using a 30-gauge needle. Treatments were administrated p.o. 10 min before formalin injection.
# Nociceptive behavior was quantified measuring time spent licking the injected paw after injection.
# For evaluation of antinociceptive effect of a potential drug for neuropathic pain, the quantization of the second phase of the test (15-60 min) is the most important. Controls animals were observed under identical conditions without receiving treatments before formalin injection.
# For each dose of compound given the % inhibition of licking vs. control animals were calculated. ED50 was calculated using the method of Litchfield and Wilcoxon. At the end of the experiments, mice were humanely euthanized with a dose of sodium pentobarbital (150 mg/kg i.p.).
# Male Swiss mice [2] = experiment: Hot plate method (acute pain model); assay type: in vivo; conditions: Mus musculus, oral, 30 minutes before test, hot surface 55° C, dose producing 50% MPE, cutoff 60 seconds, read-out: HOT PLATE (ED50, p.o)
# Method: The activity of some of the products was also tested using an acute pain model by using the hot plate method.
# The method that was used is described by Eddy N. B. and Leimbach D. (J. Pharm. Exp. Ther. 107: 385-393, 1953). The analgesic effect of the products was evaluated analyzing the behavior of the animals on a hot surface at 55° C±1° C.
# Male Swiss mice weighing 20-25 g were used. The compounds being tested were administered orally 30 minutes before starting the test.
# The process consisted of placing the animals on the plate and keeping them in a Plexiglas cylinder 25 cm high and 21 cm […]. The time the animals took to jump off the hot surface was determined The animals were selected before starting the test so that those that took longer than 10 seconds to jump off (predrug latency) were not included in the group that would receive treatment.
# A predrug latency time was determined before product treatment in all animals and 30 minutes after administering the product being tested, the test was repeated and the maximum time it took the animals to jump off (test latency) was again recorded.
# The results are expressed in the table as ED50 that was calculated from % MPE (Maximum Posible Effect) determined as follows:
# % MPE=100×(test latency−predrug latency)/(cutoff time−predrug latency)
# The % MPE was measured for each compound at different dose levels (μmol/kg) and the ED50 values (dose of compound that produced 50% MPE) were obtained using a computer assisted linear regression analysis of the dose-response curve, including an analysis of variance test for linearity.
Structure (SMILES),ED50 (Male Swiss mice [1]),ED50 (Male Swiss mice [2]),FORMALIN TEST (ED50 p.o) Phase II (Male Swiss mice [1])
"COC(=O)NCC1(CC(=O)Oc2cccc(C3(O)CCCCC3CN(C)C)c2)CCCCC1 (centres unmarked) [Product of example 14, (1R2R, 1S2S) 3-(2-((dimethylamino)methyl)-1-hydroxycyclohexyl)phenyl 2-(1-((methoxycarbonylamino)methyl)cyclohexyl)acetate]",44.5 µmol/kg,–,–
"CCOC(=O)NC[C@H](CC(=O)Oc1cccc([C@@]2(O)CCCC[C@@H]2CN(C)C)c1)CC(C)C [Product of example 24, (S)-3-((1R,2R)-2-((dimethylamino)methyl)-1-hydroxycyclohexyl)phenyl 3-((ethoxycarbonylamino)methyl)-5-methylhexanoate]",56.9 µmol/kg,–,–
"CCOC(=O)NCC1(CC(=O)Oc2cccc(C3(O)CCCCC3CN(C)C)c2)CCCCC1 (centres unmarked) [Product of example 4, (1R2R, 1S2S) 3-(2-((dimethylamino)methyl)-1-hydroxycyclohexyl)phenyl 2-(1-((ethoxycarbonylamino)methyl)cyclohexyl)acetate]",19 µmol/kg,26.3 µmol/kg,–
"CCOC(=O)NC[C@H](CC(=O)Oc1cccc(C2(O)CCCCC2CN(C)C)c1)CC(C)C (stereo partly drawn) [Product of example 23, (1R2R, 1S2S)-(S)-3-(2-((dimethylamino)methyl)-1-hydroxycyclohexyl)phenyl 3-((ethoxycarbonylamino)methyl)-5-methylhexanoate]",75.2 µmol/kg,–,–
"COc1cccc([C@@]2(O)CCCC[C@@H]2CN(C)C)c1 (relative stereo) [Tramadol hydrochloride, (1R,2R)-rel-2-[(dimethylamino)methyl]-1-(3-methoxyphenyl) cyclohexanol, reference compound]",139 µmol/kg,66 µmol/kg,–
"CN(C)CC1CCCCC1(O)c1cccc(OC(=O)CC2(CNC(=O)Oc3ccccc3)CCCCC2)c1 (centres unmarked) [Product of example 17, (1R2R, 1S2S)3(2-((dimethylamino)methyl)-1-hydroxycyclohexyl)phenyl 2-(1-((phenoxycarbonylamino)methyl)cyclohexyl)acetate]",39 µmol/kg,–,–
CN(C)C[C@H]1CCCC[C@]1(O)c1cccc(OC(=O)CC2(CNC(=O)OC(C)(C)C)CCCCC2)c1 [Product of example 2],17.2 µmol/kg,8 µmol/kg,–
"CC(=O)NCC1(CC(=O)Oc2cccc(C3(O)CCCCC3CN(C)C)c2)CCCCC1 (centres unmarked) [Product of example 18, (1R2R, 1S2S)3(2-((dimethylamino)methyl)-1-hydroxycyclohexyl)phenyl 2-(1-(acetamidomethyl)cyclohexyl)acetate]",30.4 µmol/kg,–,–
"CCOC(=O)NCC1(CC(=O)Oc2cccc([C@@H](CC)[C@@H](C)CN(C)C)c2)CCCCC1 [Product of example 22, 3-((2R,3S)-1-(dimethylamino)-2-methylpentan-3-yl)phenyl 2-(1-((ethoxycarbonylamino)methyl)cyclohexyl)acetate]",30.4 µmol/kg,–,–
"COc1cccc([C@]2(O)CCCC[C@H]2CN(C)C)c1 (single isomer, unassigned) [Tramadol Enantiomer S,S, reference compound]",–,–,233.3 µmol/kg
"CCOC(=O)NCC1(CC(=O)Oc2cccc([C@]3(O)CCCC[C@H]3CN(C)C)c2)CCCCC1 [Product of example 13, 3-((1S,2S)-2-((dimethylamino)methyl)-1-hydroxycyclohexyl)phenyl 2-(1-((ethoxycarbonylamino)methyl)cyclohexyl)acetate]",28 µmol/kg,–,–
"CCOC(=O)NCC1(CC(=O)Oc2cccc(C3=C(CN(C)C)CCCC3)c2)CCCCC1 [Product of example 19, 3-(2-((dimethylamino)methyl)cyclohex-1-enyl)phenyl 2-(1-((ethoxycarbonylamino)methyl)cyclohexyl)acetate]",62.7 µmol/kg,–,–
"CC(C)OC(=O)NCC1(CC(=O)Oc2cccc(C3(O)CCCCC3CN(C)C)c2)CCCCC1 (centres unmarked) [Product of example 15, (1R2R, 1S2S) 3-(2-((dimethylamino)methyl)-1-hydroxycyclohexyl)phenyl 2-(1-((isopropoxycarbonylamino)methyl)cyclohexyl)acetate]",57.9 µmol/kg,–,–
"CN(C)CC1CCCCC1(O)c1cccc(OC(=O)CC2(CNC(=O)OCc3ccccc3)CCCCC2)c1 (centres unmarked) [Product of example 16, (1R2R, 1S2S)3(2-((dimethylamino)methyl)-1-hydroxycyclohexyl)phenyl 2-(1-((benzyloxycarbonylamino)methyl)cyclohexyl)acetate]",37.9 µmol/kg,–,–
"CCOC(=O)NCC1(CC(=O)Oc2cccc(C3=CCCCC3CN(C)C)c2)CCCCC1 (centres unmarked) [Product of example 20, 3-(6-((dimethylamino)methyl)cyclohex-1-enyl)phenyl 2-(1-((ethoxycarbonylamino)methyl)cyclohexyl)acetate]",59.7 µmol/kg,–,–
"CN(C)CC1CCCCC1(O)c1cccc(OC(=O)CC2(CNC(=O)OC(C)(C)C)CCCCC2)c1 (centres unmarked) [Product of example 1, (1R2R, 1S25)-3-(2-((dimethylamino)methyl)-1-hydroxycyclohexyl)phenyl 2-(1-((tert-butoxycarbonylamino)methyl)cyclohexyl)acetate]",39.9 µmol/kg,35.7 µmol/kg,–
"COc1cccc([C@@]2(O)CCCC[C@@H]2CN(C)C)c1 (single isomer, unassigned) [Tramadol Enantiomer R,R, reference compound]",–,–,126.6 µmol/kg
CN(C)C[C@@H]1CCCC[C@@]1(O)c1cccc(OC(=O)CC2(CNC(=O)OC(C)(C)C)CCCCC2)c1 [Product of example 3],65.9 µmol/kg,–,–
"CCOC(=O)NCC1(CC(=O)Oc2cccc([C@@]3(O)CCCC[C@@H]3CN(C)C)c2)CCCCC1 [Product of example 5, 3-((1R,2R)-2-((dimethylamino)methyl)-1-hydroxycyclohexyl)phenyl 2-(1-((ethoxycarbonylamino)methyl)cyclohexyl)acetate]",6 µmol/kg,–,–
